Measured values from paper PMC7873226, “Molecular mechanism and structural basis of small-molecule modulation of the gating of acid-sensing ion channel 1” (Communications Biology, 2021).

Key:
[1] = target: T1, rat ASIC1a (Rattus norvegicus, UniProt P55926); assay: Whole-cell patch clamp: inhibition of acid-induced current in CHO cells stably expressing rat ASIC1a; assay type: cell-based; conditions: 30 µM
T1 construct: expressed in transfected cells
T1 sequence (P55926 1-526): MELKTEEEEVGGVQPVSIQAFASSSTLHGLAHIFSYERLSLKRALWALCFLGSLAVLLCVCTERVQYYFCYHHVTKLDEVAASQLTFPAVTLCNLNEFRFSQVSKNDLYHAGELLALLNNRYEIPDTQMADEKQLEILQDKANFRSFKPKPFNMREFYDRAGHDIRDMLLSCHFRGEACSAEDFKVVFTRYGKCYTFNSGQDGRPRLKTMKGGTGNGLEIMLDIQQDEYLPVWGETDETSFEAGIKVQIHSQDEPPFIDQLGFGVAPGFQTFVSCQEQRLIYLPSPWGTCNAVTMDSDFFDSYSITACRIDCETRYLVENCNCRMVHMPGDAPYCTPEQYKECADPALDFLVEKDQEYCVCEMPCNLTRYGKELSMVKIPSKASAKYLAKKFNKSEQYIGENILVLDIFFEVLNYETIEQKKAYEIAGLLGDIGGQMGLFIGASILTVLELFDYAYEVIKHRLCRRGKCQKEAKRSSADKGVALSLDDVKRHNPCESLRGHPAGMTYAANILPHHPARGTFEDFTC
Experimental: (§1) Chinese Hamster Ovary (CHO) cells stably expressing rat ASIC1a were cultured in Ham’s F12, supplemented with 10% FBS, 1% penicillin–streptomycin and 500 µg/mL G418 and incubated at 37 °C with 5% CO2. Transient transfections of rASIC1a and cASIC1 wild-type or mutant channels in CHO cells were performed with Lipofectamine 3000 (Thermo Fisher Scientific) according to the manufacturer’s recommendations. The green fluorescent protein (GFP) cDNA (at 1/10 the amount of channel cDNA) was co-transfected with channel cDNA to aid the identification of transfected cells under the microscope in patch clamp experiments. All cDNAs were sequence verified.
(§2) Cells were freshly dissociated with CellStripper (Corning) and dispersed in a chamber on the stage of an inverted microscope. Upon formation of the whole-cell conformation, the cell was lifted from the bottom of the chamber and placed at the tip of a tubing perfusing an extracellular solution containing (in mM): 149 NaCl, 2 CaCl2, 4 KCl, 1 MgCl2, 5 glucose, 10 HEPES, pH 7.4, 310 mOsm/L. Extracellular solutions at more basic or acidic pHs were made by titrating the above pH 7.4 solution with NaOH or HCl (5 mM MES was added to solutions at pH 6.0 and lower). Pipette electrodes were filled with an intracellular solution containing (in mM): 135 KCl, 4 MgATP, 0.3 Na2GTP, 10 EGTA, and 20 HEPES, pH 7.2, 290 mOsm/L.
(§3) All recordings were performed at room temperature using an Axopatch 200B amplifier and pClamp 11 software (Molecular Devices). Currents were measured by whole-cell patch clamp, digitized at 10 kHz and lowpass filtered at 2 kHz. Series resistance was 75% compensated. Responses were elicited by rapid perfusion of acidic solutions using the SF-77B Fast-Step Perfusion device (Warner Instruments) for 40 ms once every 30 s (unless indicated otherwise) and recorded till steady state was reached. The holding potential was 0 mV unless indicated otherwise.
(§4) Baseline values (i.e., current amplitudes at the conditioning pH) were subtracted to obtain responses evoked by the test pH. Responses were normalized for each cell before averaging (see figure legends for more detail on normalization for each type of experiment). Concentration–response data were fitted to a logistic function of the form: R = (A1–A2)/(1 + (C/C0)^h)+A2, where R is the normalized response, C is either pH or compound concentration, C0 is the pH/concentration at which half-maximal response occurs (pH50 or IC50), h is the Hill coefficient, and A1 and A2 are constants. Kinetic parameters were obtained by fitting the data with either a single or double exponential function. Fitted data are shown as solid, dashed, or dotted curves.

[2] = target: T1, rat ASIC1a; assay: pH dependence of steady-state desensitization (whole-cell patch clamp); assay type: cell-based; conditions: 10 nM PcTx1
Experimental: as §1, §2, §3, §4

Row | block of pH 6.0-induced current ([1]; 0 mV) | block of pH 6.0-induced current ([1]; −80 mV) | Compound | pH50 of steady-state desensitization [2]
1 | 62.3 ± 0.7% | 86.8 ± 1.2% | N=C(N)NC(=O)c1nc(Cl)c(N)nc1N [amiloride, reference compound] | 
2 |  |  | PcTx1 [reference compound] | 7.81 ± 0.02
